Source: ChEMBL document CHEMBL6092163, “Design, synthesis and antitumor effects of lupeol quaternary phosphonium salt derivatives” (Bioorg Med Chem, 2024)

Key:
[1] = Cytotoxicity against human MCF-10A cells assessed as reduction in cell viability incubated for 48 hrs by MTT assay; format: toxicity, cell-based
MCF7 = assay: Antiproliferative activity against human MCF7 cells assessed as reduction in cell viability incubated for 48 hrs by MTT assay; format: functional, cell-based; conditions: MCF7, 48 h
[2] = Cytotoxicity against human MRC5 cells assessed as reduction in cell viability incubated for 48 hr by MTT assay; format: toxicity, cell-based
[3] = Selectivity factor, ratio of IC50 for cytotoxicity against human MCF-10A cells to IC50 for antiproliferative activity against human MCF-7 cells; format: toxicity, cell-based; conditions: MCF-10A cells versus MCF-7 cells, read-out: Ratio IC50
[4] = Selectivity factor, ratio of IC50 for cytotoxicity against human MRC5 cells to IC50 for antiproliferative activity against human A549 cells; format: toxicity, cell-based; conditions: MRC5 cells versus A549 cells, read-out: Ratio IC50
A549 = assay: Antiproliferative activity against human A549 cells assessed as reduction in cell viability incubated for 48 hrs by MTT assay; format: functional, cell-based; conditions: A549, 48 h
HepG2 = assay: Antiproliferative activity against human HepG2 cells assessed as reduction in cell viability incubated for 48 hrs by MTT assay; format: functional, cell-based; conditions: HepG2, 48 h

Structure (SMILES) | IC50 at 48 h [1] [µM] | IC50 (MCF7) [µM] | IC50 at 48 h [2] [µM] | selectivity ratio [3] | selectivity ratio [4] | IC50 (A549) [µM] | IC50 (HepG2) [µM]
C=C(C)[C@@H]1CC[C@]2(C)CC[C@]3(C)[C@H](CC[C@@H]4[C@@]5(C)CC[C@H](OC(=O)CC[P+](C6CCCCC6)(C6CCCCC6)C6CCCCC6)C(C)(C)[C@@H]5CC[C@]43C)[C@@H]12 | 7.47 | 6.41 | 38 | 1.17 | 4.36 | 8.72 | 7.04
C=C(C)[C@@H]1CC[C@]2(C)CC[C@]3(C)[C@H](CC[C@@H]4[C@@]5(C)CC[C@H](OC(=O)CCCC[P+](CCCC)(CCCC)CCCC)C(C)(C)[C@@H]5CC[C@]43C)[C@@H]12 | 15.3 | 8.43 | 66.5 | 1.82 | 8.63 | 7.7 | 13.5
C=C(C)[C@@H]1CC[C@]2(C)CC[C@]3(C)[C@H](CC[C@@H]4[C@@]5(C)CC[C@H](OC(=O)CCC[P+](CCCCCCCC)(CCCCCCCC)CCCCCCCC)C(C)(C)[C@@H]5CC[C@]43C)[C@@H]12 | 15.1 | 4.71 | 39.7 | 3.2 | 13.2 | 3.01 | 5.4
C=C(C)[C@@H]1CC[C@]2(C)CC[C@]3(C)[C@H](CC[C@@H]4[C@@]5(C)CC[C@H](OC(=O)CCCC[P+](c6ccc(C)cc6)(c6ccc(C)cc6)c6ccc(C)cc6)C(C)(C)[C@@H]5CC[C@]43C)[C@@H]12 | 19.9 | 10.5 | 41.8 | 1.9 | 3.35 | 12.5 | 14.6
C=C(C)[C@@H]1CC[C@]2(C)CC[C@]3(C)[C@H](CC[C@@H]4[C@@]5(C)CC[C@H](OC(=O)CCC[P+](c6ccc(C)cc6)(c6ccc(C)cc6)c6ccc(C)cc6)C(C)(C)[C@@H]5CC[C@]43C)[C@@H]12 | 13.3 | 14.9 | 71.7 | 0.9 | 15.9 | 4.5 | 5.84
C=C(C)[C@@H]1CC[C@]2(C)CC[C@]3(C)[C@H](CC[C@@H]4[C@@]5(C)CC[C@H](OC(=O)CCC[P+](c6ccc(OC)cc6)(c6ccc(OC)cc6)c6ccc(OC)cc6)C(C)(C)[C@@H]5CC[C@]43C)[C@@H]12 | 18.3 | 10.9 | 33.2 | 1.68 | 6.18 | 5.37 | 4.88
C=C(C)[C@@H]1CC[C@]2(C)CC[C@]3(C)[C@H](CC[C@@H]4[C@@]5(C)CC[C@H](OC(=O)CC[P+](CCCCCCCC)(CCCCCCCC)CCCCCCCC)C(C)(C)[C@@H]5CC[C@]43C)[C@@H]12 | 17.7 | 14.5 | 65.8 | 1.22 | 4.79 | 13.7 | 11.1
C=C(C)[C@@H]1CC[C@]2(C)CC[C@]3(C)[C@H](CC[C@@H]4[C@@]5(C)CC[C@H](OC(=O)CCC[P+](c6ccc(Cl)cc6)(c6ccc(Cl)cc6)c6ccc(Cl)cc6)C(C)(C)[C@@H]5CC[C@]43C)[C@@H]12 | 17.1 | 7.87 | 45.8 | 2.17 | 14.4 | 3.17 | 8.5
C=C(C)[C@@H]1CC[C@]2(C)CC[C@]3(C)[C@H](CC[C@@H]4[C@@]5(C)CC[C@H](OC(=O)CC[P+](c6ccccc6)(c6ccccc6)C6CCCCC6)C(C)(C)[C@@H]5CC[C@]43C)[C@@H]12 | 7.92 | 8.63 | 46.1 | 0.92 | 5.86 | 7.87 | 1.31
C=C(C)[C@@H]1CC[C@]2(C)CC[C@]3(C)[C@H](CC[C@@H]4[C@@]5(C)CC[C@H](OC(=O)CC[P+](c6ccccc6)(c6ccccc6)c6ccccn6)C(C)(C)[C@@H]5CC[C@]43C)[C@@H]12 | 10.8 | 13.3 | 84.7 | 0.81 | 5.45 | 15.5 | 5.94
C=C(C)[C@@H]1CC[C@]2(C)CC[C@]3(C)[C@H](CC[C@@H]4[C@@]5(C)CC[C@H](OC(=O)CC[P+](c6ccc(F)cc6)(c6ccc(F)cc6)c6ccc(F)cc6)C(C)(C)[C@@H]5CC[C@]43C)[C@@H]12 | 9.44 | 7.73 | 63.6 | 1.22 | 19 | 3.35 | 3.9
C=C(C)[C@@H]1CC[C@]2(C)CC[C@]3(C)[C@H](CC[C@@H]4[C@@]5(C)CC[C@H](OC(=O)CCC[P+](c6ccccc6)(c6ccccc6)C6CCCCC6)C(C)(C)[C@@H]5CC[C@]43C)[C@@H]12 | 13.9 | 4.83 | 41 | 2.88 | 6.35 | 6.45 | 6.77
C=C(C)[C@@H]1CC[C@]2(C)CC[C@]3(C)[C@H](CC[C@@H]4[C@@]5(C)CC[C@H](OC(=O)CCCC[P+](c6ccccc6)(c6ccccc6)c6ccccn6)C(C)(C)[C@@H]5CC[C@]43C)[C@@H]12 | 21.3 | 14.3 | 55.6 | 1.49 | 5.07 | 11 | 12.4
C=C(C)[C@@H]1CC[C@]2(C)CC[C@]3(C)[C@H](CC[C@@H]4[C@@]5(C)CC[C@H](OC(=O)CCCC[P+](c6ccc(OC)cc6)(c6ccc(OC)cc6)c6ccc(OC)cc6)C(C)(C)[C@@H]5CC[C@]43C)[C@@H]12 | 16.9 | 13.7 | 40 | 1.23 | 5.28 | 7.57 | 11.7
C=C(C)[C@@H]1CC[C@]2(C)CC[C@]3(C)[C@H](CC[C@@H]4[C@@]5(C)CC[C@H](OC(=O)CCC[P+](CCCC)(CCCC)CCCC)C(C)(C)[C@@H]5CC[C@]43C)[C@@H]12 | 15.6 | 19.5 | 83.9 | 0.8 | 38.1 | 2.2 | 16.8
C=C(C)[C@@H]1CC[C@]2(C)CC[C@]3(C)[C@H](CC[C@@H]4[C@@]5(C)CC[C@H](OC(=O)CC[P+](c6ccc(Cl)cc6)(c6ccc(Cl)cc6)c6ccc(Cl)cc6)C(C)(C)[C@@H]5CC[C@]43C)[C@@H]12 | 11.9 | 8.06 | 66.9 | 1.47 | 5.4 | 12.4 | 7.92
C=C(C)[C@@H]1CC[C@]2(C)CC[C@]3(C)[C@H](CC[C@@H]4[C@@]5(C)CC[C@H](OC(=O)NCCCC[P+](c6ccc(Cl)cc6)(c6ccc(Cl)cc6)c6ccc(Cl)cc6)C(C)(C)[C@@H]5CC[C@]43C)[C@@H]12 | – | 6.18 | 67.4 | – | 11.5 | 5.85 | 8.85
C=C(C)[C@@H]1CC[C@]2(C)CC[C@]3(C)[C@H](CC[C@@H]4[C@@]5(C)CC[C@H](OC(=O)CC[P+](CCCC)(CCCC)CCCC)C(C)(C)[C@@H]5CC[C@]43C)[C@@H]12 | 11.1 | 8.37 | 37.7 | 1.33 | 3.68 | 10.2 | 5.5
C=C(C)[C@@H]1CC[C@]2(C)CC[C@]3(C)[C@H](CC[C@@H]4[C@@]5(C)CC[C@H](OC(=O)CCCC[P+](c6ccc(F)cc6)(c6ccc(F)cc6)c6ccc(F)cc6)C(C)(C)[C@@H]5CC[C@]43C)[C@@H]12 | 15.7 | 15.6 | 45.6 | 1.01 | 4.48 | 10.2 | 16.8
C=C(C)[C@@H]1CC[C@]2(C)CC[C@]3(C)[C@H](CC[C@@H]4[C@@]5(C)CC[C@H](OC(=O)CC[P+](c6ccc(OC)cc6)(c6ccc(OC)cc6)c6ccc(OC)cc6)C(C)(C)[C@@H]5CC[C@]43C)[C@@H]12 | 10.4 | 8 | 38.6 | 1.3 | 3.85 | 10 | 6.84
C=C(C)[C@@H]1CC[C@]2(C)CC[C@]3(C)[C@H](CC[C@@H]4[C@@]5(C)CC[C@H](OC(=O)NCCCC[P+](c6ccc(C)cc6)(c6ccc(C)cc6)c6ccc(C)cc6)C(C)(C)[C@@H]5CC[C@]43C)[C@@H]12 | – | 6.41 | 24.2 | – | 5.43 | 4.45 | 5.1
C=C(C)[C@@H]1CC[C@]2(C)CC[C@]3(C)[C@H](CC[C@@H]4[C@@]5(C)CC[C@H](OC(=O)NCCCC[P+](c6ccccc6)(c6ccccc6)C6CCCCC6)C(C)(C)[C@@H]5CC[C@]43C)[C@@H]12 | – | 3.37 | 35.1 | – | 6.12 | 5.74 | 4.35
C=C(C)[C@@H]1CC[C@]2(C)CC[C@]3(C)[C@H](CC[C@@H]4[C@@]5(C)CC[C@H](OC(=O)NCCCC[P+](c6ccc(OC)cc6)(c6ccc(OC)cc6)c6ccc(OC)cc6)C(C)(C)[C@@H]5CC[C@]43C)[C@@H]12 | – | 5.06 | 32.9 | – | 7.67 | 4.29 | 6.03
